Laboratory results reported in publication PMC5831858, “Pharmacological characterisation of CR6086, a potent prostaglandin E2 receptor 4 antagonist, as a new potential disease-modifying anti-rheumatic drug” (Arthritis Research & Therapy, 2018).
Where two headings read alike, the source gives them in different places.

Assays:
IL-6 gene expression = IL-6 gene expression in THP-1 cells differentiated to macrophages; type: cell-based; conditions: Homo sapiens, LPS 10 ng/ml + PGE2 10 nM, read-out: IC50 transcription of IL-6
Protocol: The human monocyte cell line THP-1 was obtained from the ATCC and was grown according to the instructions provided. THP-1 monocytic cells were differentiated to macrophages with 100 nM phorbol 12-myristate 13-acetate (PMA) for 4 days. Macrophages were then stimulated with lipopolysaccharide (LPS) 10 ng/ml and PGE2 10 nM for 3 or 24 h. Total RNA was purified using the ABI Prism 6100 Nucleic Acid PrepStation (Applied Biosystems, Foster City, CA, USA) and retrotranscribed using the High-Capacity cDNA Reverse Transcription Kit (Thermo Fisher Scientific). RT-PCR analysis was performed using the Applied Biosystems 7500 Fast Real-Time PCR System using specific TaqMan assays (number Hs00174131_m1 for IL-6, number Hs00900054_m1 for vascular endothelial growth factor A [VEGFA]; Thermo Fisher Scientific) and, as an endogenous control, the 18S Pre-Developed TaqMan® Assay (Thermo Fisher Scientific). The data analysis, with normalisation on 18S amplified values, was done following Thermo Fisher Scientific’s specific instructions for gene expression relative quantification. All individual data are the result of at least three different analyses for each sample.

β2 = β2 (Homo sapiens, UniProt P07550); assay: Adrenergic receptor β2 binding; conditions: [^3H](-)CGP 12177, Human recombinant CHO cells, read-out: CR6086 Activity at 10µM
M4 = M4 (Homo sapiens, UniProt P08173); assay: Muscarinic acetylcholine receptor M4 binding; conditions: [^3H]4-DAMP, Human recombinant CHO cells, read-out: CR6086 Activity at 10µM
M5 = M5 (Homo sapiens, UniProt P08912); assay: Muscarinic acetylcholine receptor M5 binding; conditions: [^3H]4-DAMP, Human recombinant CHO cells, read-out: CR6086 Activity at 10µM
P2X = assay: Purinergic receptor P2X binding; conditions: [^3H]α,β-MeATP, Rat urinary bladder
GABA (non-selective) = assay: GABA receptor (non-selective) binding; conditions: [^3H]GABA, Rat cerebral cortex
rat EP4 receptor = rat EP4 receptor (Rattus norvegicus, UniProt P43114); assay: EP4 radioligand binding assay ([^3H]PGE2), rat receptor; parameters: the cDNA encoding the full-length rat (NM_032076) or mouse (NM_001136079) EP4 receptors; host or cells: HEK293 (transient)
Source text: For rodent EP4 receptor cloning, the cDNA encoding the full-length rat (NM_032076) or mouse (NM_001136079) EP4 receptors cloned in pCMV6 entry was provided by OriGene Inc. (TrueORF Gold, catalogue numbers RN206839 and MC216813; OriGene, Rockville, MD, USA). Expression of rat and mouse receptors was obtained by transfecting HEK293 cells with the respective vector using Lipofectamine 3000 reagent (Thermo Fisher Scientific) according to the manufacturer’s instructions.
Membranes expressing the human EP4 receptor were prepared from stably transfected HEK293 cell line. […] Protein content of the cell membrane suspension was determined using bovine serum albumin (BSA) as a standard.
Experimental procedures were performed according to the method of Abramovitz et al.. […] The residual [^3H]PGE2 binding was determined using a solid scintillation counter (TopCount; PerkinElmer) after at least 1 h of stabilisation. In saturation binding studies, isotherm-binding curves generated with six to eight different concentrations of [^3H]PGE2 (from 0.5 to 25 nM) were evaluated. […]
Specific binding to the receptors was defined as the difference between total binding and non-specific binding, as determined in the presence of an excess of unlabelled ligand. […] Competition curves were analysed to assess the half-maximal inhibitory concentration (IC50). […] The results of replicated curves were expressed as mean ± SEM.

rat EP4 receptor, sequence (P43114 whole entry): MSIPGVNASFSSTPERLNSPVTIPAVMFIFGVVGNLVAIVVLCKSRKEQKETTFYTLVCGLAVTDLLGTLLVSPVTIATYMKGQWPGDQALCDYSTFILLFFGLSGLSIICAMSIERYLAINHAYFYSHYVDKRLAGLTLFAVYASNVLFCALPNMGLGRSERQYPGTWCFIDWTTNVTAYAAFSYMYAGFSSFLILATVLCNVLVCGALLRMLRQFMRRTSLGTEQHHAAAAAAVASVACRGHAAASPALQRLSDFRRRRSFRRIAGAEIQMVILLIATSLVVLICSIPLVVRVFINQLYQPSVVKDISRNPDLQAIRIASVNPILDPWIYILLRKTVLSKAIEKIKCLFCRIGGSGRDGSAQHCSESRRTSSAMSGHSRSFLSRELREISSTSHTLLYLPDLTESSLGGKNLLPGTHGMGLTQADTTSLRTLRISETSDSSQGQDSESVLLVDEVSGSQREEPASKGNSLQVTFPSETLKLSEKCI
M4, sequence (P08173 whole entry): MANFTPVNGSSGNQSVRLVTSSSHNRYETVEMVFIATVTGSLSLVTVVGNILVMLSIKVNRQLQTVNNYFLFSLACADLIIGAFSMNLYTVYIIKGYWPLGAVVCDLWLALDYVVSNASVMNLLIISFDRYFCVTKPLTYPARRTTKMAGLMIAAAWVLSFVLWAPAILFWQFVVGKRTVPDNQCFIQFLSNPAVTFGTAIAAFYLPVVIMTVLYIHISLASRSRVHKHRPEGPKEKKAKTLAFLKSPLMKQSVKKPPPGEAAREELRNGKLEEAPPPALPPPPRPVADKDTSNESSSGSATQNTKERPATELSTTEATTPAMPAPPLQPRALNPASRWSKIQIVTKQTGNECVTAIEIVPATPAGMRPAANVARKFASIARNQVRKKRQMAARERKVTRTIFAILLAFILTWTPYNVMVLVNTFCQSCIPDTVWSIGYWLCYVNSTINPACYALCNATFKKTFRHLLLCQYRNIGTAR
M5, sequence (P08912 whole entry): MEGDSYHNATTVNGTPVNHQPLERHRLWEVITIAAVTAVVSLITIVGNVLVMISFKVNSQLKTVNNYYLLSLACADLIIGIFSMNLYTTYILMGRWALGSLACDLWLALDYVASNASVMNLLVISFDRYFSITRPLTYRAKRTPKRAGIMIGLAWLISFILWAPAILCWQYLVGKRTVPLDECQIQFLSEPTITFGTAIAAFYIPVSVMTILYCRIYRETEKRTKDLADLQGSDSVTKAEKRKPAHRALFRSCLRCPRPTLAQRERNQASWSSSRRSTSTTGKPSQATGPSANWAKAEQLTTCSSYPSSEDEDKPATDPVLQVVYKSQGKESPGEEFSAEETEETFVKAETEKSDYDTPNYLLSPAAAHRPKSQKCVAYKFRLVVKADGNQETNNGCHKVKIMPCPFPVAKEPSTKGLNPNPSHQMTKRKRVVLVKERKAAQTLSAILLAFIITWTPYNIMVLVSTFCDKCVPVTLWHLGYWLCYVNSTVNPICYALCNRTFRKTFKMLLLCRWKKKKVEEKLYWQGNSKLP
β2, sequence (P07550 whole entry): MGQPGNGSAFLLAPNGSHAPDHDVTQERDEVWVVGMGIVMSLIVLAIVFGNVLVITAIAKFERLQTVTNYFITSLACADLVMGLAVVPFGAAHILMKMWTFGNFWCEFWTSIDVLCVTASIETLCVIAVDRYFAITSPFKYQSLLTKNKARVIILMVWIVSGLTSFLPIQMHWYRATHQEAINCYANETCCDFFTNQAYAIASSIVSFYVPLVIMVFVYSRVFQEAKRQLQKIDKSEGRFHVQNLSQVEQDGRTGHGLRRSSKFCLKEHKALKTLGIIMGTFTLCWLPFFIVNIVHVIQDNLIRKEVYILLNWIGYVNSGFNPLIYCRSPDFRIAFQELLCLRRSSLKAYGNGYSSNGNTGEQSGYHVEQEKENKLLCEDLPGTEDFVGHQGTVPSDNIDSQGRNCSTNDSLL

O=C([O-])c1ccc(C2(NC(=O)[C@H]3CC4(CCN3Cc3ccc(C(F)(F)F)cc3)CC4)CC2)cc1.[Na+] [CR6086, Sodium (R)-4-(1-(6-(4-(trifluoromethyl)benzyl)-6-azaspiro[2.5]octane-5-carboxamido)cyclopropyl)benzoate] was tested, and the IC50 (IL-6 gene expression) was 70 nM, the inhibition at 10 µM (β2) was < 20% and the inhibition at 10 µM (M4) was < 20%. For the same compound, the inhibition at 10 µM (M5) was < 20%, the “CR6086 Activity at 10µM” value (P2X) was “IN (IN = < 20% displacement or inhibition (all tables))” and the “CR6086 Activity at 10µM” value (GABA (non-selective)) was “IN (IN = < 20% displacement or inhibition (all tables))”. For the same compound, the Ki (rat EP4 receptor; [^3H]PGE2 displacement, transiently transfected HEK293 membranes, read-out: Ki CR6086) was 76.6 ± 12.3 nM and the Ki (rat EP4 receptor; expressed as mass concentration, read-out: Ki value for the rat EP4 receptor (converted)) was 73.2 nM.
